According to patent US6960601B2, “Preparation and use of imidazole derivatives for treatment of obesity” (Bayer Pharmaceuticals Corporation, priority 2001, dated 2005):

Key:
obese Zucker fa/fa rats = assay: Chronic feeding assay (body weight, food and water consumption); type: in vivo, rat; conditions: 10 mg/kg p.o. once a day, day 6 of treatment
Source text: Evaluation of Compound's Efficacy on the Reduction of Body Weight and Food and Water Consumption in Obese Zucker fa/fa Rats
The purpose of this protocol is to determine the effect of chronic administration of an unknown compound on body weight and food and water consumption in obese Zucker fa/fa rats. Obese Zucker fa/fa rats are frequently used in the determination of compound efficacy in the reduction of body weight. This animal model has been successfully used in the identification and characterization of the efficacy profile of compounds that are or have been used in the management of body weight in obese humans (see, e.g., Al-Barazanji et al., Obes Res. 8:317-323, 2000; Assimacopoulos-Jeannet et al., Am. J. Physiol. 260(2 Pt 2):R278-283, 1991; Dryden et al., Horm. Metab. Res. 31:363-366, 1999; Edwards and Stevens, Pharmacol. Biochem. Behav. 47:865-872, 1994; Grinker et al., Pharmacol. Biochem. Behav. 12:265-275, 1980).
A typical study includes 60-80 male Zucker fa/fa (n=10/treatment group) with an average body weight of approximately 550 g. Rats are kept in standard animal rooms under controlled temperature and humidity and a 12/12 light dark cycle. Water and food are continuously available. Rats are single-housed in large rat shoeboxes containing grid floor. Animals are adapted to the grid floors and sham-dosed with study vehicle for at least four days before the recording of two-days baseline measurement of body weight and 24-hr food and water consumption. Rats are assigned to one of 6-8 treatment groups based upon their body weight on baseline. The groups are set up so that the mean and standard error of the mean of body weight were similar.
Animals are orally gavaged (2 mL/kg) daily before the dark phase of the LD/cycle for a pre-determined number of days (typically 6-14 days) with their assigned dose/compound. At this time, body weight, food and water consumption are measured. On the final day, animals are euthanized by CO2 inhalation, and the body weight is measured.

[1] = Measurement of brain exposure; type: in vivo; conditions: rat, brain homogenate, oral; 10 mg/kg p.o.; brains collected at 2 hours post-dosing; male obese Zucker fa/fa rats; read-out: brain homogenate exposure level
Procedure: Measurement of Brain Exposure
Male obese Zucker fa/fa rats were administered compounds, typically at 10 mg/kg p.o., and then brains were collected at 2 hours post-dosing for determination of brain concentration. Brains were weighed and homogenized with 4 mL 10 mM ammonium acetate buffer (pH 3), and the brain tissue homogenate samples were extracted via protein precipitation with acetonitrile. Samples were vortexed, centrifuged, and analyzed by liquid chromatography utilizing mass spectrometer selective detection (LC/MS/MS) using the heated nebulizer interface. Samples were quantitated using weighted (1/x^2) linear internal standard calibration curve. For example, when 1-(4-chlorophenyl)-2-(2-chlorophenyl)-N-(1-piperidinyl)-5-butyl-1H-imidazole-4-carboxamide was dosed at 10 mg/kg p.o., a brain homogenate exposure level of approximately 200 nM was determined; when 2-(2-chlorophenyl)-1-(4-chlorophenyl)-5-ethyl-N-[(1S,2S)-2-hydroxycyclohexyl]-1H-imidazole-4-carboxamide was dosed at 10 mg/kg p.o., a brain homogenate exposure level of approximately 200 nM was determined.

Structure (SMILES) | increase in body weight from baseline (obese Zucker fa/fa rats) | reduction in body weight gain as compared to the vehicle control group (obese Zucker fa/fa rats) | concentration at 2 h [1] [nM] | melting point [°C]
Cl.O=C(NNc1ccc(C(F)(F)F)cc1)c1cn(-c2ccc(Cl)cc2)c(-c2ccccc2Cl)n1 [2-(2-chlorophenyl)-1-(4-chlorophenyl)-N′-[4-(trifluoromethyl)phenyl]-1H-imidazole-4-carbohydrazide hydrochloride] | approximately 1.8% | approximately 60% | – | –
CCc1c(C(=O)N[C@H]2CCCC[C@@H]2O)nc(-c2ccccc2Cl)n1-c1ccc(Cl)cc1 [2-(2-chlorophenyl)-1-(4-chlorophenyl)-5-ethyl-N-[(1S,2S)-2-hydroxycyclohexyl]-1H-imidazole-4-carboxamide] | – | – | ~200 | –
Cc1c(C(=O)NC2CCCCC2)nc(-c2ccccc2Cl)n1-c1ccc([N+](=O)[O-])cc1 [Example 23, N-cyclohexyl-2-(2-chlorophenyl)-5-methyl-1-(4-nitrophenyl)-1H-imidazole-4-carboxamide] | – | – | – | 217 to 220
CCCCc1c(C(=O)NN2CCCCC2)nc(-c2ccccc2Cl)n1-c1ccc(Cl)cc1 [1-(4-chlorophenyl)-2-(2-chlorophenyl)-N-(1-piperidinyl)-5-butyl-1H-imidazole-4-carboxamide] | – | – | ~200 | –
O=C(N[C@H]1CCCC[C@@H]1O)c1cn(-c2ccc(Cl)cc2)c(-c2ccccc2Cl)n1 [2-(2-chlorophenyl)-1-(4-chlorophenyl)-N-[(1S,2S)-2-hydroxycyclohexyl]-1H-imidazole-4-carboxamide] | approximately 2.4% | approximately 50% | – | –
